≈ marks a conversion by molar mass, not a printed value.

These results are taken from patent publication US20240270762A1, “PENICILLIN-BINDING PROTEIN INHIBITORS” (priority 2021, published 2024).

One assay concerns A. baumannii 1258916. Description: microbe, parasite or virus in culture. Format: cell-based, Acinetobacter baumannii. As to conditions: Acinetobacter baumannii, 1258916, read-out: MIC, A. baumannii 1258916.
Another assay deals with A. baumannii CDC-0083. Kind of assay: microbe, parasite or virus in culture. Format: cell-based. As to conditions: Acinetobacter baumannii, CDC0083, read-out: MIC, A. baumannii CDC-0083.
A further assay has as its system N. gonorrhoeae WHO X. Description: Liquid broth MIC in Fastidious broth. To be noted: Neisseria gonorrhoeae, read-out: Minimum Inhibitory Concentration (MIC), N. gonorrhoeae WHO X.
For the next assay, the system named is A. baumannii CDC-0033. Description: microbe, parasite or virus in culture. As to conditions: Acinetobacter baumannii, CDC0033, read-out: MIC, A. baumannii CDC-0033. It is filed as cell-based.
In the next assay the test system is N. gonorrhoeae WHO K. Description: Liquid broth MIC in Fastidious broth. To be noted: Neisseria gonorrhoeae, read-out: Minimum Inhibitory Concentration (MIC), N. gonorrhoeae WHO K.
The subject of the next assay is P. aeruginosa CDC-0110. Description: microbe, parasite or virus in culture. To be noted: Pseudomonas aeruginosa, CDC0110, read-out: Minimum inhibitory concentration, P. aeruginosa CDC-0110. Format: cell-based.
For assay [1], the target named is T1, PBP3 from Acinetobacter baumannii (ATCC 19606) (Acinetobacter baumannii, UniProt A0ABX6CK25).
T1 sequence (A0ABX6CK25 64-610): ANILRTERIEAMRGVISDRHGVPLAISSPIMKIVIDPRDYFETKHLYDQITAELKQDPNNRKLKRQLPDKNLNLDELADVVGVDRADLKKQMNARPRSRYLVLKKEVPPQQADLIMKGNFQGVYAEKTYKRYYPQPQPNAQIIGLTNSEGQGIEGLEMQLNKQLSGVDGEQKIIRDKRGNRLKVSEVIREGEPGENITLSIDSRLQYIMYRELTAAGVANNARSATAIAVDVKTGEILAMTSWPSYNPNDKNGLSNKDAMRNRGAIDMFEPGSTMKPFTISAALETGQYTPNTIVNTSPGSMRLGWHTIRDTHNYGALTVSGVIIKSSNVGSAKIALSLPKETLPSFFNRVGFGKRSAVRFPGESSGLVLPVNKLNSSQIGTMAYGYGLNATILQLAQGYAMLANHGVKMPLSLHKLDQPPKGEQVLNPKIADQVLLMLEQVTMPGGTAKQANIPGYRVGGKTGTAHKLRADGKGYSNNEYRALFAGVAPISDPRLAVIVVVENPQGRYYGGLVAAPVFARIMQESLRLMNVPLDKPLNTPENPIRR
Kind of assay: Bocillin-FL fluorescence polarization competition binding, A. baumannii PBP3. To be noted: fluorescence polarization competition binding assay using Bocillin-FL; read-out: A. baumannii PBP3 Potency. In a few lines:
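Purified PBP was preincubated with inhibitor (E. coli PBP3 1.5 μM, 30 min; P. aeruginosa PBP3 0.75 μM, A. baumannii PBP3 0.2 μM and PBP1a 1 μM, 15 min), then Bocillin-FL (0.1 μM; 0.05 μM for PBP1a) added and FP read up to 60 min. EC50 = 50% loss of bound probe.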
Background: Fluorescence polarisation rises when a labelled molecule tumbles more slowly, as on binding a larger partner.

The test system of another assay is P. aeruginosa CDC-0090. Kind of assay: microbe, parasite or virus in culture. Format: cell-based. As to conditions: Pseudomonas aeruginosa, CDC0090, read-out: Minimum inhibitory concentration, P. aeruginosa CDC-0090.
The next assay deals with P. aeruginosa CDC-0095. Kind of assay: microbe, parasite or virus in culture. It is filed as cell-based. To be noted: Pseudomonas aeruginosa, CDC0095, read-out: Minimum inhibitory concentration, P. aeruginosa CDC-0095.
For a further assay, the system named is N. gonorrhoeae WHO M. Kind of assay: Liquid broth MIC in Fastidious broth. To be noted: Neisseria gonorrhoeae, read-out: Minimum Inhibitory Concentration (MIC), N. gonorrhoeae WHO M.
A further assay relates to A. baumannii ATCC 17978. Description: microbe, parasite or virus in culture. It is filed as cell-based. As to conditions: Acinetobacter baumannii, ATCC17978, read-out: MIC, A. baumannii ATCC 17978.

Description for N. gonorrhoeae WHO M: Liquid broth-based assays were used for antibacterial testing of PBP inhibitors in Neisseria gonorrhoeae. Briefly, cryo-preserved bacterial cultures of clinical strains were streaked for isolation on Chocolate Agar (72 g/L (2×) GC Agar Base (BD #228950) and 2% (2×) Hemoglobin was autoclaved at 121° C. for 20 minutes to sterilize. Once cooled to ˜50° C. the 2×GC Agar Base and 2× Hemoglobin solutions are combined and 1% IsoVitaleX Enrichment (BD #211876) was added to the solution). Strains were incubated at 36° C. and 5% CO2 to allow growth of colonies, 24 hours before inoculum preparation. 2-fold serial dilutions of test compounds were conducted in a 96 well plate with a final volume of 75 μL per well at 2-fold the final desired concentration in Fastidious broth (Remel #R07664). For preparation of assay inoculum, a direct suspension was prepared by aseptically swabbing 10-15 colonies from agar plates into culture tubes containing 2 mL of fresh sterile saline. After the dilution plates were set up, direct suspensions were then diluted in a cuvette containing sterile saline and the optical density was measured at 600 nm. Inocula were diluted such that 75 μL of this culture in Fastidious broth results in a starting bacterial concentration of 5×10^5 CFU/mL when added to the dilution plates. The plates were incubated for ˜24 hours at 36° C. and 5% CO2.

As for `O=C(NCCCN1CCN(C(=O)NC(C(=O)N[C@H]2Cc3ccc(F)c(C(=O)O)c3OB2O)c2cc(F)c(O)c(O)c2Cl)C(=O)C1=O)Nc1cccc(O)c1` (stereo partly drawn) [Example 206, (3R)-3-(2-(2-chloro-5-fluoro-3,4-dihydroxyphenyl)-2-(4-(3-(3-(3-hydroxyphenyl)ureido)propyl)-2,3-dioxopiperazine-1-carboxamido)acetamido)-7-fluoro-2-hydroxy-3,4-dihydro-2H-benzo[e][1,2]oxaborinine-8-carboxylic acid], the MIC in the assay with A. baumannii 1258916 is below 1 mg/L; in the assay on A. baumannii CDC-0083, below 1 mg/L; in the assay on N. gonorrhoeae WHO X, above 64 mg/L; in the assay with A. baumannii CDC-0033, 2 to 4 mg/L (≈ 2.58 to 5.16 µM); in the assay with N. gonorrhoeae WHO K, above 64 mg/L; in the assay with P. aeruginosa CDC-0110, below 1 mg/L. The MIC in the assay on P. aeruginosa CDC-0090 is below 1 mg/L; in the assay with P. aeruginosa CDC-0095, below 1 mg/L; in the assay on N. gonorrhoeae WHO M it was 4 to 8 mg/L (≈ 5.16 to 10.3 µM); in the assay on A. baumannii ATCC 17978, below 1 mg/L. Besides, the IC50 in assay [1] is below 10 µM.
`O=C(NCCN1CCN(C(=O)NC(C(=O)N[C@H]2Cc3ccc(F)c(C(=O)O)c3OB2O)c2cc(F)c(O)c(O)c2Cl)C(=O)C1=O)c1ccccc1` (stereo partly drawn) [Example 207, (3R)-3-(2-(4-(2-benzamidoethyl)-2,3-dioxopiperazine-1-carboxamido)-2-(2-chloro-5-fluoro-3,4-dihydroxyphenyl)acetamido)-7-fluoro-2-hydroxy-3,4-dihydro-2H-benzo[e][1,2]oxaborinine-8-carboxylic acid]: the MIC in the assay with A. baumannii 1258916 was 2 to 4 mg/L (≈ 2.74 to 5.48 µM); with A. baumannii CDC-0083, 2 to 4 mg/L (≈ 2.74 to 5.48 µM); with N. gonorrhoeae WHO X it was above 64 mg/L; in the assay with A. baumannii CDC-0033, 8 to 16 mg/L (≈ 11 to 21.9 µM); with N. gonorrhoeae WHO K, above 64 mg/L; in the assay with P. aeruginosa CDC-0110 it was below 1 mg/L. In addition, the MIC with P. aeruginosa CDC-0090 was below 1 mg/L; in the assay on P. aeruginosa CDC-0095 it was 2 to 4 mg/L (≈ 2.74 to 5.48 µM); in the assay on N. gonorrhoeae WHO M it was 16 to 32 mg/L (≈ 21.9 to 43.8 µM); with A. baumannii ATCC 17978 it was below 1 mg/L. In addition, the IC50 in assay [1] was below 10 µM.
As for `CN(CCN1CCN(C(=O)N[C@@H](C(=O)N[C@H]2Cc3ccc(F)c(C(=O)O)c3OB2O)c2cc(F)c(O)c(O)c2Cl)C(=O)C1=O)Cc1cncc(O)c1` [Example 208, (R)-3-((R)-2-(2-chloro-5-fluoro-3,4-dihydroxyphenyl)-2-(4-(2-(((5-hydroxypyridin-3-yl)methyl)(methyl)amino)ethyl)-2,3-dioxopiperazine-1-carboxamido)acetamido)-7-fluoro-2-hydroxy-3,4-dihydro-2H-benzo[e][1,2]oxaborinine-8-carboxylic acid], the MIC in the assay on A. baumannii 1258916 is below 1 mg/L; in the assay on A. baumannii CDC-0083 it was below 1 mg/L; in the assay with N. gonorrhoeae WHO X, above 64 mg/L; in the assay with A. baumannii CDC-0033, 2 to 4 mg/L (≈ 2.68 to 5.36 µM); with N. gonorrhoeae WHO K, 16 to 32 mg/L (≈ 21.4 to 42.8 µM); with P. aeruginosa CDC-0110 it was below 1 mg/L. The MIC in the assay with P. aeruginosa CDC-0090 was below 1 mg/L; in the assay on P. aeruginosa CDC-0095, below 1 mg/L; in the assay with N. gonorrhoeae WHO M, 4 to 8 mg/L (≈ 5.36 to 10.7 µM); with A. baumannii ATCC 17978, below 1 mg/L. Also, the IC50 in assay [1] is below 10 µM.
Regarding `CN(CCN1CCN(C(=O)N[C@@H](C(=O)N[C@H]2Cc3ccc(F)c(C(=O)O)c3OB2O)c2cc(F)c(O)c(O)c2Cl)C(=O)C1=O)Cc1ccc(N)nc1` [Example 209, (R)-3-((R)-2-(4-(2-(((6-aminopyridin-3-yl)methyl)(methyl)amino)ethyl)-2,3-dioxopiperazine-1-carboxamido)-2-(2-chloro-5-fluoro-3,4-dihydroxyphenyl)acetamido)-7-fluoro-2-hydroxy-3,4-dihydro-2H-benzo[e][1,2]oxaborinine-8-carboxylic acid], the MIC is below 1 mg/L in the assay with A. baumannii 1258916; below 1 mg/L with A. baumannii CDC-0083; above 64 mg/L with N. gonorrhoeae WHO X; 2 to 4 mg/L (≈ 2.68 to 5.36 µM) in the assay on A. baumannii CDC-0033; above 64 mg/L with N. gonorrhoeae WHO K; below 1 mg/L with P. aeruginosa CDC-0110. The MIC with P. aeruginosa CDC-0090 is below 1 mg/L; with P. aeruginosa CDC-0095, below 1 mg/L; with N. gonorrhoeae WHO M, 4 to 8 mg/L (≈ 5.36 to 10.7 µM); in the assay with A. baumannii ATCC 17978 it was below 1 mg/L. Further, in [1], the IC50 is below 10 µM.
As for `O=C(NCCCN1CCN(C(=O)N[C@@H](C(=O)N[C@H]2Cc3ccc(F)c(C(=O)O)c3OB2O)c2cc(F)c(O)c(O)c2Cl)C(=O)C1=O)c1cccnc1` [Example 210, (R)-3-((R)-2-(2-chloro-5-fluoro-3,4-dihydroxyphenyl)-2-(4-(3-(nicotinamido)propyl)-2,3-dioxopiperazine-1-carboxamido)acetamido)-7-fluoro-2-hydroxy-3,4-dihydro-2H-benzo[e][1,2]oxaborinine-8-carboxylic acid], the MIC in the assay with A. baumannii 1258916 was below 1 mg/L; with A. baumannii CDC-0083, 2 to 4 mg/L (≈ 2.69 to 5.37 µM); in the assay with N. gonorrhoeae WHO X, above 64 mg/L; in the assay on A. baumannii CDC-0033, 8 to 16 mg/L (≈ 10.7 to 21.5 µM); in the assay with N. gonorrhoeae WHO K it was above 64 mg/L; in the assay with P. aeruginosa CDC-0110 it was below 1 mg/L. Besides, the MIC in the assay with P. aeruginosa CDC-0090 is below 1 mg/L; in the assay on P. aeruginosa CDC-0095, below 1 mg/L; with N. gonorrhoeae WHO M it was 16 to 32 mg/L (≈ 21.5 to 43 µM); in the assay with A. baumannii ATCC 17978, below 1 mg/L. Besides, in assay [1], the IC50 was below 10 µM.
Turning to `O=C(NCCCN1CCN(C(=O)NC(C(=O)N[C@H]2Cc3ccc(F)c(C(=O)O)c3OB2O)c2cc(F)c(O)c(O)c2Cl)C(=O)C1=O)c1nccs1` (stereo partly drawn) [Example 211, (3R)-3-(2-(2-chloro-5-fluoro-3,4-dihydroxyphenyl)-2-(2,3-dioxo-4-(3-(thiazole-2-carboxamido)propyl)piperazine-1-carboxamido)acetamido)-7-fluoro-2-hydroxy-3,4-dihydro-2H-benzo[e][1,2]oxaborinine-8-carboxylic acid], the MIC in the assay on A. baumannii 1258916 is below 1 mg/L; in the assay with A. baumannii CDC-0083, below 1 mg/L; with N. gonorrhoeae WHO X, above 64 mg/L; in the assay on A. baumannii CDC-0033, 2 to 4 mg/L (≈ 2.66 to 5.33 µM); with N. gonorrhoeae WHO K, above 64 mg/L; in the assay on P. aeruginosa CDC-0110 it was below 1 mg/L. Further, the MIC is below 1 mg/L in the assay with P. aeruginosa CDC-0090, 2 to 4 mg/L (≈ 2.66 to 5.33 µM) with P. aeruginosa CDC-0095, 16 to 32 mg/L (≈ 21.3 to 42.6 µM) in the assay on N. gonorrhoeae WHO M and below 1 mg/L with A. baumannii ATCC 17978. For the same molecule, the IC50 in assay [1] is below 10 µM.
For the molecule `O=C(O)c1c(F)ccc2c1OB(O)[C@@H](NC(=O)C(NC(=O)N1CCN(CCCNC(=O)[C@@H]3CCCN3)C(=O)C1=O)c1cc(F)c(O)c(O)c1Cl)C2` (stereo partly drawn) [Example 212, (3R)-3-(2-(2-chloro-5-fluoro-3,4-dihydroxyphenyl)-2-(2,3-dioxo-4-(3-((S)-pyrrolidine-2-carboxamido)propyl)piperazine-1-carboxamido)acetamido)-7-fluoro-2-hydroxy-3,4-dihydro-2H-benzo[e][1,2]oxaborinine-8-carboxylic acid], the MIC in the assay on A. baumannii 1258916 was 2 to 4 mg/L (≈ 2.71 to 5.43 µM); in the assay with A. baumannii CDC-0083, 32 to 64 mg/L (≈ 43.4 to 86.9 µM); with N. gonorrhoeae WHO X, above 64 mg/L; in the assay on A. baumannii CDC-0033 it was 8 to 16 mg/L (≈ 10.9 to 21.7 µM); in the assay with N. gonorrhoeae WHO K, above 64 mg/L; in the assay on P. aeruginosa CDC-0110 it was below 1 mg/L. For the same molecule, the MIC in the assay with P. aeruginosa CDC-0090 is below 1 mg/L; in the assay with P. aeruginosa CDC-0095, 2 to 4 mg/L (≈ 2.71 to 5.43 µM); in the assay with N. gonorrhoeae WHO M, 16 to 32 mg/L (≈ 21.7 to 43.4 µM); with A. baumannii ATCC 17978, below 1 mg/L. In addition, the IC50 in assay [1] is below 10 µM.
On to `O=C(NCCCN1CCN(C(=O)NC(C(=O)N[C@H]2Cc3ccc(F)c(C(=O)O)c3OB2O)c2cc(F)c(O)c(O)c2Cl)C(=O)C1=O)Nc1cccnc1` (stereo partly drawn) [Example 213, (3R)-3-(2-(2-chloro-5-fluoro-3,4-dihydroxyphenyl)-2-(2,3-dioxo-4-(3-(3-(pyridin-3-yl)ureido)propyl)piperazine-1-carboxamido)acetamido)-7-fluoro-2-hydroxy-3,4-dihydro-2H-benzo[e][1,2]oxaborinine-8-carboxylic acid], for which the MIC with A. baumannii 1258916 is below 1 mg/L; with A. baumannii CDC-0083, 8 to 16 mg/L (≈ 10.5 to 21.1 µM); with N. gonorrhoeae WHO X, above 64 mg/L; in the assay with A. baumannii CDC-0033, 8 to 16 mg/L (≈ 10.5 to 21.1 µM); in the assay with N. gonorrhoeae WHO K it was above 64 mg/L; in the assay with P. aeruginosa CDC-0110 it was below 1 mg/L. Further, the MIC is 2 to 4 mg/L (≈ 2.63 to 5.26 µM) with P. aeruginosa CDC-0090, below 1 mg/L in the assay on P. aeruginosa CDC-0095, 16 to 32 mg/L (≈ 21.1 to 42.1 µM) in the assay on N. gonorrhoeae WHO M and below 1 mg/L in the assay with A. baumannii ATCC 17978. The IC50 in assay [1] is below 10 µM.
